Data set [1] has as its system SARS-CoV-2. Kind of data set: Antiviral activity against SARS-CoV-2 infected in African Green monkey Vero cells assessed as inhibition of viral cytopathic effect measured after 72 hrs by inverted microscopic method. Format: functional, organism-based, Vero E6. To be noted: Severe acute respiratory syndrome coronavirus 2, Vero C1008, 72 h.
The subject of data set [2] is Vero C1008. To be noted: chlorocebus sabaeus, vero c1008, 48 h.
Description: (§1) Cytotoxicity against African Green monkey Vero E6 cells assessed as reduction in cell viability measured after 48 hrs by MTT assay
The nature of data set [3]: in vitro. The conditions noted are these: PAMPA.
Description: (§2) Permeability of compound incubated for 3 hrs by UV plate reader based PAMPA assay
The conditions of data set [4]: pampa, 3 h.
Description: as §2
Data set [5] is described as follows: in vitro. To be noted: chlorocebus sabaeus, Vero E6 cells.
Description: as §1
A short description of data set [6]: Metabolic stability of the compound in human liver microsomes S9 fraction preincubated with NADPH for 10 mins followed by compound addition at 50 uM measured upto 360 mins by HPLC analysis. To be noted: read-out: Stability. Format: ADME, subcellular.
The nature of data set [7]: Selectivity ratio of CC50 for African Green monkey Vero E6 cells to IC50 for SARS-CoV-2. Format: toxicity, Vero C1008.
The nature of data set [8]: in vitro. The conditions noted are these: chlorocebus sabaeus, Vero E6 cells. The source holds these as a separate data set.
Description: Cytotoxicity against African green monkey Vero E6 cells assessed as reduction in cell viability preincubated for 2 hrs followed by SARS-CoV-2 addition measured after 24 hrs by CPE assay
Data set [9] is described as follows: Stability of compound in human plasma at 100 uM by HPLC analysis. The data set is classed as ADME, cell-free. To be noted: read-out: Stability.
The subject of data set [10] is Vero E6. The data set is classed as cell-based. The conditions noted are these: Chlorocebus aethiops, time 1.0 hrs.
The nature of data set [11]: Oral bioavailability in rat at 5 mg/kg. Format: ADME, organism-based. To be noted: in vivo.

Activity calls are given as the source filed them. No cut-off for these calls is given here.

With `O=C(Nc1cccc([N+](=O)[O-])c1)c1cc(Cl)ccc1O`, the 50% inhibitory concentration (IC50) in [1] amounted to 1.29 µM. The compound further gave a CC50 in data set [2] of 3.53 µM. This compound also came in with a Papp at 3 h in data set [3] of 19.5 ×10⁻⁶ cm/s.
Consider `O=C(Nc1ccc(O[C@@H]2O[C@H](CO)[C@@H](O)[C@H](O)[C@H]2O)cc1)c1cc(Cl)ccc1O`, for which the CC50 in data set [2] was above 100 µM. In addition, the Papp at 3 h in data set [3] was found to be 1.9 ×10⁻⁶ cm/s.
The compound `Cc1cccc(CNC(=O)c2cc(Cl)ccc2O)c1` returned a CC50 in data set [2] of 82.4 µM. Further, the Papp at 3 h in [3] is 28.4 ×10⁻⁶ cm/s.
Take `O=C(Nc1ccc([N+](=O)[O-])cc1)c1cc(Cl)ccc1O`: in data set [1], the IC50 is 1.11 µM. Moreover, in [4], the permeability is given as 12.4 10^-6 cm/s.
As for `Cc1ccc(CNC(=O)c2cc(Cl)ccc2O)cc1`, the CC50 in data set [2] was 47.7 µM. This compound yielded a Papp at 3 h in [3] of 42.6 ×10⁻⁶ cm/s.
In the case of `O=C(Nc1cccc(O)c1)c1cc(Cl)ccc1O`, the CC50 at 48 h in [5] is above 100 µM. In data set [3], this compound yielded a Papp at 3 h of 15.9 ×10⁻⁶ cm/s.
On to `CNC(=C[N+](=O)[O-])NCCSCc1ccc(CN(C)C)o1` [RANITIDINE], for which the Papp at 3 h in data set [3] stood at 1.6 ×10⁻⁶ cm/s.
As for `O=C(Nc1cccc(Cl)c1)c1cc(Cl)ccc1O`, the IC50 in [1] turned out to be 0.39 µM. The remaining at 6 h, 50 µM in [6] is 33%. The compound also had a CC50 in data set [2] of 2.46 µM. The Papp at 3 h in data set [3] worked out at 8.6 ×10⁻⁶ cm/s.
In turn, `O=C(Nc1ccc(F)c(Cl)c1)c1cc(Cl)ccc1O` displayed a CC50 in data set [2] of 2.44 µM. Also, the Papp at 3 h in [3] came to 11.5 ×10⁻⁶ cm/s.
Regarding `O=C(Nc1ccc([N+](=O)[O-])cc1Cl)c1ccccc1O`, the half-inhibitory concentration (IC50) in data set [1] was determined as 1.68 µM. Also, in data set [7], the selectivity ratio was 1.2. Moreover, the CC50 in data set [2] turned out to be 2.03 µM. For the same compound, the Papp at 3 h in data set [3] amounted to 15.3 ×10⁻⁶ cm/s. The CC50 at 24 h in [8] turned out to be 100 µM.
With `COc1ccc2cc1Oc1ccc(cc1)C[C@H]1c3c(cc4c(c3Oc3cc5c(cc3OC)CCN(C)[C@@H]5C2)OCO4)CCN1C` [CEPHARANTHINE], in [1], the half-inhibitory concentration (IC50) was determined as 2.8 µM.
On to `Cc1c(O)cccc1C(=O)N[C@@H](CSc1ccccc1)[C@H](O)CN1C[C@H]2CCCC[C@H]2C[C@H]1C(=O)NC(C)(C)C`, for which, in [1], the half-maximal inhibitory concentration (IC50) was found to be 3.3 µM.
As for `O=C(Nc1cccc(C(F)(F)F)c1)c1cc(Cl)ccc1O`, the IC50 in [1] was 0.49 µM. Also, the remaining at 6 h, 50 µM in data set [6] is 47%. The compound also came in with a CC50 in data set [2] of 5.95 µM. In [3], this compound came in with a Papp at 3 h of 4.2 ×10⁻⁶ cm/s. The compound also displayed a CC50 at 24 h in [8] of 100 µM.
`O=C(Nc1ccc([N+](=O)[O-])cc1Cl)c1cc(F)ccc1O` showed a CC50 in data set [2] of 8.15 µM. Besides, in [3], the Papp at 3 h is 30.7 ×10⁻⁶ cm/s.
With `CC(C)(C)c1cccc(NC(=O)c2cc(Cl)ccc2O)c1`, the IC50 in data set [1] came out at 1.51 µM. Besides, in [7], the selectivity ratio stood at 1.6. The compound also showed a CC50 in data set [2] of 2.36 µM. Also, the Papp at 3 h in data set [3] came out at 18.7 ×10⁻⁶ cm/s.
Take `Cc1ccc(C(=O)Nc2ccc([N+](=O)[O-])cc2Cl)c(O)c1`: the CC50 in data set [2] worked out at 21.6 µM. In data set [3], this compound registered a Papp at 3 h of 6.1 ×10⁻⁶ cm/s.
In [2], `Cc1ccc(O)c(C(=O)Nc2ccc([N+](=O)[O-])cc2Cl)c1` returned a CC50 of 5.68 µM. In data set [3], this compound returned a Papp at 3 h of 20.9 ×10⁻⁶ cm/s.
Regarding `O=C(Nc1ccc([N+](=O)[O-])cc1Cl)c1ccccc1`, the CC50 in data set [2] was above 100 µM. The compound further gave a Papp at 3 h in data set [3] of 42.2 ×10⁻⁶ cm/s.
`O=C(Nc1ccc(N2CCCCC2)cc1)c1cc(Cl)ccc1O` displayed a CC50 in data set [2] of 65.9 µM. The compound also gave a Papp at 3 h in data set [3] of 43.3 ×10⁻⁶ cm/s.
Turning to `O=C(Nc1ccc([N+](=O)[O-])c(Cl)c1)c1cc(Cl)ccc1O`, the IC50 in data set [1] was 0.057 µM. In addition, the remaining at 100 µM in data set [9] was determined as 78%. Also, the remaining at 6 h, 50 µM in data set [6] was 41%. In addition, the inhibition result in [10] was “Active”.
Turning to `O=C(Nc1ccc(F)cc1)c1cc(Cl)ccc1O`, the CC50 in data set [2] was determined as 6.78 µM. Besides, the permeability in [4] is reported as 18.2 10^-6 cm/s.
In data set [2], `O=C(Nc1cccc(F)c1)c1cc(Cl)ccc1O` returned a CC50 of 3.63 µM. The compound further came in with a Papp at 3 h in data set [3] of 3.7 ×10⁻⁶ cm/s.
With `O=C(Nc1ccc([N+](=O)[O-])cc1Cl)c1cc(Cl)ccc1O` [NICLOSAMIDE], in data set [1], the IC50 stood at 0.4 µM. Besides, the bioavailability in data set [11] is 10%. For the same compound, the inhibition entry in [10] was “Active”. Besides, in [2], the CC50 was found to be 1.03 µM. Also, the Papp at 3 h in data set [3] was determined as 8.5 ×10⁻⁶ cm/s.
On to `O=C(Nc1ccc(O)cc1)c1cc(Cl)ccc1O`, for which, in data set [5], the CC50 at 48 h was above 100 µM. Further, the Papp at 3 h in data set [3] was 33.1 ×10⁻⁶ cm/s.
With `O=C(Nc1ccccc1)c1cc(Cl)ccc1O`, the IC50 in data set [1] came out at 8.59 µM. For the same compound, the CC50 in data set [2] is 19.2 µM. In addition, the Papp at 3 h in [3] worked out at 16 ×10⁻⁶ cm/s.
On to `O=C(Nc1ccc(C(F)(F)F)cc1)c1cc(Cl)ccc1O`, for which, in [1], the IC50 was 0.38 µM. This compound had a Papp at 3 h in data set [3] of 6.9 ×10⁻⁶ cm/s.

Source of the values: ChEMBL document CHEMBL5131509 (Eur J Med Chem, 2022).
